Test results published in patent publication US20210275480A1, “COMPOSITIONS AND METHODS FOR THE REDUCTION OR TREATMENT OF FIBROSIS” (AXCELLA HEALTH INC., priority 2018, published 2021).

Key:
[1] = test system: LX-2 hepatic stellate cells; experiment: TGFβ1-induced fibrogenic gene expression (Col1a1, Acta2, Timp2) in LX-2 hepatic stellate cells, qPCR; type: cell-based, human
Excerpt: Hepatic stellate cells in a healthy liver are in the space of Disse, between the hepatocytes and liver sinusoidal endothelial cells. In response to liver injury hepatic stellate cells become activated, proliferative and contractile, increase production of aSMA, secretion of type I and III collagens and specific MMP and TIMP proteins. LX-2 cells were selected as a model of activated hepatic stellate cells and used to test whether specific amino acid compositions would reduce fibrogenic gene expression induced with TGFβ1.
LX-2 hepatic stellate cells (Millipore) were seeded on day 0 at 1.67E4 cells per well in collagen I coated 96-well microplates (ThermoFisher) in Dulbecco's Modified Eagle Medium (DMEM, Corning) supplemented with 2% heat inactivated fetal bovine serum (HI-FBS, HyClone) and 0.2% Primocin (InVivoGen) and incubated overnight at 37° C., 5% CO2. […] Combinations containing N-acetylcysteine were dosed with 10 mM. Cells were pretreated for 6 hours at 37° C., 5% CO2. After pretreatment, TGFβ1 (R&D Systems) or vehicle was spiked into each well for a final concentration of 5 ng/mL and cells were incubated under this stimulus for a further 12 hours at 37° C., 5% CO2.
After 12 hour incubation, RNA extraction and quantitative PCR was conducted on lysates to determine collagen-1a1 expression normalized to β-actin housekeeping expression using the ΔΔCt method using TaqMan primer probes (Integrated DNA Technologies: Col1A1, Hs.PT.58.15517795; Actb, Hs.PT.39a.22214847; Acta2, Hs.PT.56a.24853961; Timp2, Hs.PT.58.14780594).

[2] = test system: procollagen Iα1 secretion, primary human hepatic stellate cells; experiment: Procollagen Iα1 secretion by TGFβ1-stimulated primary human hepatic stellate cells, ELISA; type: cell-based; settings: primary human hepatic stellate cells, three healthy donors, TGFβ1 3 ng/mL 24 h; summary in words
Description: (§1) Primary human hepatic stellate cells were obtained from Samsara Sciences. Cells were grown in Complete HSC Medium to ˜80% confluence in T75 or T150 flasks below passage 10 were seeded into sterile, collagen I coated, 96-well optical plastic microplates (ThermoScientific, 152036) and incubated overnight at 37° C., 5% CO2 in a humidified incubator in DMEM with 2% Fetal Bovine Serum and 1% Antibiotic-Antimycotic. After the overnight incubation, plates are washed and pretreated with medium±single amino acid dropout, 1×HMDB DMEM±supplemental amino acid dose for 10.5 hours. After 10.5 hour pretreatment, the same pretreatment medium supplemented with 3 ng/mL TGFβ1, was applied and incubated for 24 hours at 37° C., 5% CO2. After 24 hour stimulus, supernatant was removed, RNA was extracted and gene expression was evaluated using the ΔΔCq method within each single amino acid dropout and supplementation by normalizing to its own 1×HMDB concentration.
Human Procollagen 1α1 was measured from the supernatant by ELISA (Human ProCollagen I alpha 1 DuoSet ELISA, R&D Systems) at 1/100 dilution in 1× Reagent Diluent (Reagent Ancillary Kit 2, R&D Systems).
Tables 32, 33, 33-1, 33-2, 33-3, and 33-4 show the fold change in procollagen Iα1 in primary human hepatic stellate cells from three different healthy donors normalized to their respective baseline amino acid conditions. Statistical significance calculated by one-way

[3] = test system: Col1a1 gene expression, primary human hepatic stellate cells; experiment: Col1a1 gene expression in TGFβ1-stimulated primary human hepatic stellate cells; type: cell-based; settings: primary human hepatic stellate cells, three healthy donors, TGFβ1 3 ng/mL 24 h; summary in words
Description: as §1

[4] = test system: Hsp47 gene expression, primary human hepatic stellate cells; experiment: Hsp47 gene expression in TGFβ1-stimulated primary human hepatic stellate cells; type: cell-based; settings: primary human hepatic stellate cells, three healthy donors, TGFβ1 3 ng/mL 24 h; summary in words
Description: Primary human hepatic stellate cells were obtained from Samsara Sciences based on the following criteria for selecting donors: adult age (between 18 and 50 years), normal BMI (>18.5 and <25), and absence of confounding liver disease. Cells grown in Complete HSC Medium to ˜80% confluence in T75 or T150 flasks below passage 10 were seeded into sterile, collagen I coated, 96-well optical plastic microplates (ThermoScientific, 152036) at 6000 cells per well (1250 cells per cm2) and incubated overnight at 37° C., 5% CO2 in a humidified incubator in DMEM with 2% Fetal Bovine Serum and 1% Antibiotic-Antimycotic.
After the overnight incubation, plates were removed from the incubator and the medium was gently pipetted off and washed twice with 150 μL per well DPBS. The DPBS was removed and the pretreatment medium (±single amino acid dropout, 1×HMDB DMEM+1% Antibiotic-Antimycotic, 10 mM HEPES, ±supplemental amino acid dose; see experiment for medium composition) was applied to the cells at 150 μL per well. Plates were returned to the incubator for 10.5 hours.
After 10.5 hour pretreatment, the medium was removed from the cells, and the same pretreatment medium, now supplemented with 3 ng/mL TGFβ1, was applied. Each plate contained 3 ng/mL TGFβ1 in 1× human plasma amino acid (HMDB or PAA) concentration medium, 0 ng/mL in 1×HMDB, and 3 ng/mL TGFβ1+20 μM Silybin in 1×HMDB to serve as controls. Plates were then incubated for 24 hours at 37° C., 5% CO2.
After 24 hour stimulus, supernatant was removed and frozen at −80° C. in two separate aliquots. The cells were then washed with 125 μL per well Buffer FCW (FastLane Cell Multiplex NR Kit, Qiagen, 216713). The wash buffer was immediately removed and 50 μL of Cell Processing Mix (containing genomic DNA Wipeout buffer) was applied to lyse cells, incubating for 10 minutes at room temperature. RNA lysate was then transferred to 96-well qPCR plates, sealed, and gDNA was digested on thermal cycler at 75° C. for 5 minutes. RNA lysate was frozen at −80° C.
Each 20 μL one-step RT-qPCR reaction contained 4 μL of RNA lysate. Gene expression of Hsp47, and Gapdh were multiplexed using the HEX, and FAM fluorescent channels, respectively, with commercially available primer-probe mixes (the Human Hsp47 Primer-Probe Set, HEX; and the Human Gapdh Primer-Probe Set, FAM from IDT). Gene expression was evaluated using the ΔΔCq method within each single amino acid dropout and supplementation by normalizing to its own 1×HMDB concentration.

[5] = LX-2 cells with TGFβ1, individual amino acid at 1X HMDB derived concentration
[6] = LX-2 cells with TGFβ1, individual amino acid at 50X HMDB derived concentration
[7] = LX-2 cells, TGFβ1 5 ng/mL 12 h, combinations at 40× HMDB, N-acetylcysteine 10 mM, normalized to β-actin

| SMILES | Col1a1 gene expression, mean [1, 5] | Col1a1 gene expression, mean [1, 6] | Col1a1 gene expression, mean ([1]; LX-2 cells with TGFβ1, individual amino acid at 50X HMDB derived concentration, listed as cysteine) | procollagen Iα1 secretion [2] | Acta2 gene expression, mean [1, 7] | Timp2 gene expression, mean [1, 7] | Col1a1 gene expression, mean ([1]; LX-2 cells, TGFβ1 5 ng/mL 12 h, combinations at 40× HMDB, N-acetylcysteine 10 mM, normalized to β-actin (ΔΔCt)) | Col1a1 gene expression, mean ([1]; LX-2 cells, TGFβ1 5 ng/mL 12 h, combinations at 40× HMDB, N-acetylcysteine 10 mM, normalized to β-actin (ΔΔCt), listed as N-acetylcysteine) | Timp2 gene expression, mean ([1]; LX-2 cells, TGFβ1 5 ng/mL 12 h, combinations at 40× HMDB, N-acetylcysteine 10 mM, normalized to β-actin, listed as N-acetylcysteine) | Col1a1 gene expression [3] | Hsp47 gene expression [4] |
| --- | --- | --- | --- | --- | --- | --- | --- | --- | --- | --- | --- |
| N[C@@H](CS)C(=O)O [CYS, cysteine] | 2.491 | 1.695 | significant decrease |  |  |  |  |  |  |  |  |
| CC(=O)N[C@@H](CS)C(=O)O [NAC, N-acetylcysteine] |  |  |  | significantly decrease procollagen Iα1 secretion in two of the three donors | 0.647 | 1.076 | 1.659 | reduced | reduced | significantly reduced Col1a1 gene expression in all three donors |  |
| NC(=O)CC[C@H](N)C(=O)O [GLN, glutamine] | 2.340 | 2.194 |  |  |  |  |  |  |  |  | significantly increased Hsp47 gene expression in one of three donors |
| N=C(N)NCCC[C@H](N)C(=O)O [ARG, arginine] | 1.620 | 1.970 |  | significantly increased procollagen Iα1 secretion in two of three donors |  |  |  |  |  | did not significantly change | significantly increased Hsp47 gene expression in two of three donors |
| CC(C)C[C@H](N)C(=O)O [LEU, leucine] | 1.901 | 2.372 |  |  |  |  |  |  |  |  | did not significantly change |
